Results published in patent US20100113421A1, “NON-NUCLEOSIDE REVERSE TRANSCRIPTASE INHIBITORS” (priority 2006, published 2010).
Like-named read-outs stand apart in the source and are kept apart here.

Experiments:
[1] = system: HIV strain containing the Y181C mutation; assay: Spread assay, Y181C mutant strain; format: cell-based
Procedure, shortened: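 Acute HIV-1 infection of T-lymphoid cells run in the presence of 10% FBS, […]; potency expressed as CIC95.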

[2] = system: mutant strain containing both the K103N and Y181C mutations; assay: Spread assay, mutant strain containing both K103N and Y181C; format: cell-based, HIV
Procedure: Assays for the inhibition of acute HIV-1 infection of T-lymphoid cells (alternatively referred to herein as the “spread assay”) were conducted in accordance with Vacca, J. P. et al., Proc. Natl. Acad. Sci. USA 1994, 91: 4096. The assays (using 10% FBS) tested for inhibition of wild type HIV-1 and of HIV strains containing the Y181C or K103N mutation. […] (Note that the compound of Example 6 was tested only up to a 833 nM concentration and the CIC95 value was determined to be >833 nM. The compound of Example 78 was not tested in the Y1818C assay.) The compounds of Examples 1 to 119 (including Examples 70A and 70B) had CIC95 values of less than 1000 nanomolar in the assay employing the K103N mutant strain. In an analogous assay employing a mutant strain containing both the K103N and Y181C mutations, the compounds of Examples 70A, 70B and 78-115 had CIC95 values of less than 1000 nanomolar.

[3] = Human immunodeficiency virus 1, spread assay, 10% FBS, Y181C mutant strain, read-out: CIC95
[4] = Human immunodeficiency virus 1, read-out: CIC95
[5] = Human immunodeficiency virus 1, analogous spread assay, K103N and Y181C double mutant strain, read-out: CIC95

| SMILES | IC95 [1, 3] [µM] | IC95 [2, 5] [µM] | further results |
| --- | --- | --- | --- |
| CCCc1c(C(=O)N(C)Cc2ccc3ncccc3c2)[nH]c(C(N)=O)c1S(=O)(=O)c1ccccc1 [Example 65, N-methyl-4-(phenylsulfonyl)-3-propyl-N-(6-quinolinylmethyl)-1H-pyrrole-2,5-dicarboxamide] | < 8 | – | – |
| CCCCc1c(C(=O)N(C)Cc2ccc3ncccc3c2)[nH]c(C(N)=O)c1S(=O)(=O)c1ccccc1 [Example 66, 3-butyl-N-methyl-4-(phenylsulfonyl)-N-(6-quinolinylmethyl)-1H-pyrrole-2,5-dicarboxamide] | < 8 | – | – |
| CCCCc1c(C(=O)N(C)Cc2ccc3ncccc3c2)[nH]c(C(N)=O)c1S(=O)(=O)c1cccc(C)c1 [Example 67, 3-butyl-N-methyl-4-(3-methylphenylsulfonyl)-N-(6-quinolinylmethyl)-1H-pyrrole-2,5-dicarboxamide] | < 8 | – | – |
| CCCCc1c(C(=O)N(C)Cc2ccc3ncccc3c2)[nH]c(C(N)=O)c1S(=O)(=O)c1cccc(Cl)c1 [Example 68, 3-butyl-4-[(3-chlorophenyl)sulfonyl]-N-methyl-N-(6-quinolinylmethyl)-1H-pyrrole-2,5-dicarboxamide] | < 8 | – | – |
| CCCCc1c(C(=O)N(C)Cc2ccc3ncccc3c2)[nH]c(C(N)=O)c1S(=O)(=O)c1cc(C)cc(C)c1 [Example 69, 3-butyl-4-[(3,5-dimethylphenyl)sulfonyl]-N-methyl-N-(6-quinolinylmethyl)-1H-pyrrole-2,5-dicarboxamide] | < 8 | – | – |
| CCCCc1c(C(=O)N(C)Cc2ccc3ncccc3c2)[nH]c(C(N)=O)c1S(=O)(=O)c1cc(Cl)cc(Cl)c1 [Example 70, 3-butyl-4-[(3,5-dichlorophenyl)sulfonyl]-N-methyl-N-(6-quinolinylmethyl)-1H-pyrrole-2,5-dicarboxamide] | < 8 | – | – |
| CC(C)c1c(C(=O)N(C)Cc2ccc3ncccc3c2Cl)[nH]c(C(N)=O)c1S(=O)(=O)c1ccccc1 [Example 70A, 3-isopropyl-N-methyl-4-(phenylsulfonyl)-N-[(5-chloroquinolin-6-yl)methyl]-1H-pyrrole-2,5-dicarboxamide] | – | – | IC95 [1, 4]: < 8 µM; IC95 [2, 4]: < 1 µM |
| CC(C)c1c(C(=O)N(C)Cc2cc3cccnc3cc2Cl)[nH]c(C(N)=O)c1S(=O)(=O)c1ccccc1 [Example 70B, 3-isopropyl-N-methyl-4-(phenylsulfonyl)-N-[(7-chloroquinolin-6-yl)methyl]-1H-pyrrole-2,5-dicarboxamide] | – | – | IC95 [1, 4]: < 8 µM; IC95 [2, 4]: < 1 µM |
| Cc1c(C(=O)N(C)Cc2ccc(Cl)cc2Cl)[nH]c(C(=O)NCc2n[nH]c3ccccc23)c1S(=O)(=O)c1ccccc1 [Example 71, N-(2,4-Dichlorobenzyl)-N′-(1H-indazol-3-ylmethyl)-N,3-dimethyl-4-(phenylsulfonyl)-1H-pyrrole-2,5-dicarboxamide] | < 8 | – | – |
| CNC(=O)c1[nH]c(C(=O)N(C)Cc2ccc(Cl)cc2Cl)c(C)c1S(=O)(=O)c1ccccc1 [Example 72, N-(2,4-dichlorobenzyl)-N,N′,3-trimethyl-4-(phenylsulfonyl)-1H-pyrrole-2,5-dicarboxamide] | < 8 | – | – |
| Cc1cnccc1CNC(=O)c1[nH]c(C(=O)N(C)Cc2ccc(Cl)cc2Cl)c(C)c1S(=O)(=O)c1ccccc1 [Example 73, N-(2,4-dichlorobenzyl)-N,3-dimethyl-N′-[(3-methyl-4-pyridinyl)methyl]-4-(phenylsulfonyl)-1H-pyrrole-2,5-dicarboxamide] | < 8 | – | – |
| Cc1c(C(=O)N(C)Cc2ccc(Cl)cc2Cl)[nH]c(C(=O)NCc2ccccn2)c1S(=O)(=O)c1ccccc1 [Example 74, N-(2,4-dichlorobenzyl)-N,3-dimethyl-4-(phenylsulfonyl)-N′-(2-pyridinylmethyl)-1H-pyrrole-2,5-dicarboxamide] | < 8 | – | – |
| Cc1c(C(=O)N(C)Cc2ccc(Cl)cc2Cl)[nH]c(C(=O)NCc2cccnc2)c1S(=O)(=O)c1ccccc1 [Example 75, N-(2,4-dichlorobenzyl)-N,3-dimethyl-4-(phenylsulfonyl)-N′-(3-pyridinylmethyl)-1H-pyrrole-2,5-dicarboxamide] | < 8 | – | – |
| Cc1c(C(=O)N(C)Cc2ccc(Cl)cc2Cl)[nH]c(C(=O)NCc2nccs2)c1S(=O)(=O)c1ccccc1 [Example 76, N-(2,4-dichlorobenzyl)-N,3-dimethyl-4-(phenylsulfonyl)-N′-(1,3-thiazol-2-ylmethyl)-1H-pyrrole-2,5-dicarboxamide] | < 8 | – | – |
| Cc1c(C(=O)N(C)Cc2ccc(Cl)cc2Cl)[nH]c(C(=O)NCc2c(F)cccc2Cl)c1S(=O)(=O)c1ccccc1 [Example 77, N′-(2-chloro-6-fluorobenzyl)-N-(2,4-dichlorobenzyl)-N,3-dimethyl-4-(phenylsulfonyl)-1H-pyrrole-2,5-dicarboxamide] | < 8 | – | – |
| Cc1c(C(=O)N2CCCc3ccccc3C2)[nH]c(C(N)=O)c1S(=O)(=O)c1ccccc1 [Example 78, 4-Methyl-3-(phenylsulfonyl)-5-(1,3,4,5-tetrahydro-2H-2-benzazepine-2-ylcarbonyl)-1H-pyrrole-2-carboxamide] | – | < 1 | – |
| Cc1cc(C)cc(S(=O)(=O)c2c(C(N)=O)[nH]c(C(=O)N3CCCc4ccccc4C3)c2C)c1 [Example 79, 4-Methyl-3-(3,5-dimethylphenylsulfonyl)-5-(1,3,4,5-tetrahydro-2H-2-benzazepine-2-ylcarbonyl)-1H-pyrrole-2-carboxamide] | < 8 | < 1 | – |
| Cc1cc(C)cc(S(=O)(=O)c2c(C(N)=O)[nH]c(C(=O)N3CCCc4sccc4C3)c2C)c1 [Example 80, 3-[(3,5-Dimethylphenyl)sulfonyl]-4-methyl-5-(4,6,7,8-tetrahydro-5H-thieno[3,2-c]azepin-5-ylcarbonyl)-1H-pyrrole-2-carboxamide] | < 8 | < 1 | – |
| COc1ccc2c(c1)CN(C(=O)c1[nH]c(C(N)=O)c(S(=O)(=O)c3cc(Cl)cc(Cl)c3)c1C)CCC2 [Example 81, 3-[(3,5-dichlorophenyl)sulfonyl]-4-methyl-5-(8-methoxy-1,3,4,5-tetrahydro-2H-2-benzazepin-2-ylcarbonyl)-1H-pyrrole-2-carboxamide] | < 8 | < 1 | – |
| Cc1c(C(=O)N2CCCc3ccc(O)cc3C2)[nH]c(C(N)=O)c1S(=O)(=O)c1cc(Cl)cc(Cl)c1 [Example 82, 3-[(3,5-dichlorophenyl)sulfonyl]-4-methyl-5-(8-hydroxy-1,3,4,5-tetrahydro-2H-2-benzazepin-2-ylcarbonyl)-1H-pyrrole-2-carboxamide] | < 8 | < 1 | – |
| Cc1c(C(=O)N2CCCc3ccccc3C2)[nH]c(C(N)=O)c1S(=O)(=O)c1cc(Cl)cc(Cl)c1 [Example 83, 3-[(3,5-dichlorophenyl)sulfonyl]-4-methyl-5-(1,3,4,5-tetrahydro-2H-2-benzazepin-2-ylcarbonyl)-1H-pyrrole-2-carboxamide] | < 8 | < 1 | – |
| Cc1c(C(=O)N2CCCc3sccc3C2)[nH]c(C(N)=O)c1S(=O)(=O)c1cc(Cl)cc(Cl)c1 [Example 84, 3-[(3,5-dichlorophenyl)sulfonyl]-4-methyl-5-(4,6,7,8-tetrahydro-5H-thieno[3,2-c]azepin-5-ylcarbonyl)-1H-pyrrole-2-carboxamide] | < 8 | < 1 | – |
| COc1ccc2c(c1)CCCN(C(=O)c1[nH]c(C(N)=O)c(S(=O)(=O)c3cc(Cl)cc(Cl)c3)c1C)C2 [Example 85, 3-[(3,5-dichlorophenyl)sulfonyl]-4-methyl-5-(7-methoxy-1,3,4,5-tetrahydro-2H-2-benzazepin-2-ylcarbonyl)-1H-pyrrole-2-carboxamide] | < 8 | < 1 | – |
| Cc1c(C(=O)N2CCCc3cc(O)ccc3C2)[nH]c(C(N)=O)c1S(=O)(=O)c1cc(Cl)cc(Cl)c1 [Example 86, 3-[(3,5-dichlorophenyl)sulfonyl]-4-methyl-5-(7-hydroxy-1,3,4,5-tetrahydro-2H-2-benzazepin-2-ylcarbonyl)-1H-pyrrole-2-carboxamide] | < 8 | < 1 | – |
| Cc1c(C(=O)N(C)Cc2ccc(Cl)cc2Cl)[nH]c(C(N)=O)c1S(=O)(=O)N1CCCC1 [Example 116, N-(2,4-dichlorobenzyl)-N,3-dimethyl-4-(1-pyrrolidinylsulfonyl)-1H-pyrrole-2,5-dicarboxamide] | < 8 | – | – |
| Cc1c(C(=O)N(C)Cc2ccccc2Cl)[nH]c(C(=O)NCc2ccccn2)c1S(=O)(=O)N1CCCC1 [Example 117, N-(2-chlorobenzyl)-N,3-dimethyl-N′-(2-pyridinylmethyl)-4-(1-pyrrolidinylsulfonyl)-1H-pyrrole-2,5-dicarboxamide] | < 8 | – | – |
| Cc1c(C(=O)N(C)Cc2ccc(Cl)cc2Cl)[nH]c(C(N)=O)c1S(=O)(=O)N1CCCCC1 [Example 118, N-(2,4-dichlorobenzyl)-N,3-dimethyl-4-(1-piperidinylsulfonyl)-1H-pyrrole-2,5-dicarboxamide] | < 8 | – | – |
| Cc1c(C(=O)N(C)Cc2ccccc2Cl)[nH]c(C(N)=O)c1S(=O)(=O)N1CCCCC1 [Example 119, N-(2-chlorobenzyl)-N,3-dimethyl-4-(1-piperidinylsulfonyl)-1H-pyrrole-2,5-dicarboxamide] | < 8 | – | – |
